Laboratory results as given in US20050289668A1, “Plants with increased levels of one or more amino acids” (priority 2003, published 2005).
Where a chain is given by its changes, count along the chain named.

What was measured:
Assay type in all cases: biochemical
[1] = biological target: T1, E. coli threonine deaminase (ilvA) variant L481E, SEQ ID NO: 7 (Escherichia coli, UniProt P04968, A120R/A140R/G195C/G334V/L481E/V121L); test: Threonine deaminase steady state kinetics, L481E
T1 construct: made in house; host or cells: E. coli (pSE380, crude extract)
Method: (§1) Before conducting further transformation experiments using the isolated ilvA alleles in transgenic plants, each allele was over-expressed in E. coli to determine its kinetic parameters. Kinetics data on threonine deaminases containing various mutations, and a comparison to data available for threonine deaminases from Arabidopsis, are provided in Table 4. The E. coli ilvA481 variants were subcloned into pSE380 (Invitrogen, Carlsbad, Calif.) and expression was induced with 0.2 mM IPTG at 37° C. for 3 hours. Expression of the E. coli alleles was high and fairly consistent as visualized by SDS-PAGE.
(§2) The effects of amino acid substitutions at Leu481 in ilvA were assessed by steady state kinetic analysis in the presence and absence of L-isoleucine. Threonine deaminase polypeptides for use in in vitro kinetics studies were extracted from E. coli cells in assay buffer containing 50 mM potassium phosphate (pH7.5), 1 mM dithiothreitol (DTT), and 0.5 mM ethylenediamine-tetraacetate. A continuous assay method was employed to monitor the formation of α-ketobutyrate directly at 230 nm (ε230 (pH7.5)=540 M^−1cm^−1 whereas threonine absorption was negligible (˜1%)). […] The kinetic parameters were determined by fitting the data points to the equations using GraFit 4.0 software (Erithacus Software, Surrey, UK). […]

[2] = biological target: T2, E. coli threonine deaminase (ilvA) variant L481I, SEQ ID NO: 10 (Escherichia coli, UniProt P04968, A120R/A140R/G195C/G334V/L481I/V121L); test: Threonine deaminase steady state kinetics, L481I
T2 construct: made in house; host or cells: E. coli (pSE380, crude extract)
T2 sequence (P04968 1-514 A120R/V121L/A140R/G195C/G334V/L481I): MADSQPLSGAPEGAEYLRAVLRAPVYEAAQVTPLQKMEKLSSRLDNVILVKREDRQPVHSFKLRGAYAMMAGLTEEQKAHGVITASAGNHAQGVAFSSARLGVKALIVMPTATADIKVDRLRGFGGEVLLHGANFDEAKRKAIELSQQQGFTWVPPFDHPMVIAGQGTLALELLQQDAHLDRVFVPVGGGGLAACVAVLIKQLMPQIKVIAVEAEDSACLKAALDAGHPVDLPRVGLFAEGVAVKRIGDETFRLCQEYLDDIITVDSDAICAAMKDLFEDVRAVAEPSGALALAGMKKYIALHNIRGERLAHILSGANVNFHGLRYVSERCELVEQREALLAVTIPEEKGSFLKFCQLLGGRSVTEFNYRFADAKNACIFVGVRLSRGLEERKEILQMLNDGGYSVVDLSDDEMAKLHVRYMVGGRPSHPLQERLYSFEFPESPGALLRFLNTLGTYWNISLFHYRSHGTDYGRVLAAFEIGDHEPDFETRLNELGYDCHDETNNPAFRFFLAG
Method: as §1
(§3) The effects of amino acid substitutions at Leu481 in ilvA were assessed by steady state kinetic analysis in the presence and absence of L-isoleucine. Threonine deaminase polypeptides for use in in vitro kinetics studies were extracted from E. coli cells in assay buffer containing 50 mM potassium phosphate (pH7.5), 1 mM dithiothreitol (DTT), and 0.5 mM ethylenediamine-tetraacetate. A continuous assay method was employed to monitor the formation of α-ketobutyrate directly at 230 nm (ε230 (pH7.5)=540 M^−1cm^−1 whereas threonine absorption was negligible (˜1%)). The assay was initiated by adding 20 μl of crude extract diluted 1:20 v/v to the assay vessel containing L-threonine (between 2.5 mM and 50 mM) in a final volume of 1 mL. For L-isoleucine inhibition, L-isoleucine was added between 0 mM and 20 mM. The kinetic parameters were determined by fitting the data points to the equations using GraFit 4.0 software (Erithacus Software, Surrey, UK). For comparison, the kcat values of L481 alleles were normalized to the kcat value for the wild type IlvA enzyme. Enzymes represented in FIG. 7 are: wild type E. coli threonine deaminase (circles), L481Y TD enzyme (diamonds), L481F TD enzyme (triangles), and the L481T TD enzyme (squares). Table 4 also summarizes the kinetic parameters of the variant threonine deaminase enzymes produced by the various E. coli ilvA alleles.

[3] = biological target: T3, E. coli threonine deaminase (ilvA) variant L481T, SEQ ID NO: 8 (Escherichia coli, UniProt P04968, A120R/A140R/G195C/G334V/L481T/V121L); test: Threonine deaminase steady state kinetics, L481T
T3 construct: made in house; host or cells: E. coli (pSE380, crude extract)
Method: as §1, §2

[4] = biological target: T4, E. coli threonine deaminase (ilvA) variant L481Q, SEQ ID NO: 9 (Escherichia coli, UniProt P04968, A120R/A140R/G195C/G334V/L481Q/V121L); test: Threonine deaminase steady state kinetics, L481Q
T4 construct: made in house; host or cells: E. coli (pSE380, crude extract)
T4 sequence (P04968 1-514 A120R/V121L/A140R/G195C/G334V/L481Q): T2 sequence (P04968 1-514 A120R/V121L/A140R/G195C/G334V/L481I) with I481Q
Method: as §1, §3

[5] = biological target: T5, E. coli threonine deaminase (ilvA) variant L481P, SEQ ID NO: 6 (Escherichia coli, UniProt P04968, A120R/A140R/G195C/G334V/L481P/V121L); test: Threonine deaminase steady state kinetics, L481P
T5 construct: made in house; host or cells: E. coli (pSE380, crude extract)
Method: as §1, §2

T1 sequence (P04968 whole entry A120R/V121L/A140R/G195C/G334V/L481E): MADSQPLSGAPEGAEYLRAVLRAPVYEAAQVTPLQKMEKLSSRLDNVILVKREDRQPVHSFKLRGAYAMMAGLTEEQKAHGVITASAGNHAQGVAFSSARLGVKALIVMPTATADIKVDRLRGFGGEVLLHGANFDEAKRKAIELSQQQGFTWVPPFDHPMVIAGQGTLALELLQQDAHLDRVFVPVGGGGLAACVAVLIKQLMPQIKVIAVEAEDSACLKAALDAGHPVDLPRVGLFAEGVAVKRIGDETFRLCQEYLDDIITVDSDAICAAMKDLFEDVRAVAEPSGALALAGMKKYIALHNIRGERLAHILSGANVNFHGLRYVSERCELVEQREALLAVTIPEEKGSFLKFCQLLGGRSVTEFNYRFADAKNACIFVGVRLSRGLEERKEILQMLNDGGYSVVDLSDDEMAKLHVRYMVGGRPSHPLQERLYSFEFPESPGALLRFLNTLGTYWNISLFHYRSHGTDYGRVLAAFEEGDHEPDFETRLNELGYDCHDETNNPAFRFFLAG
T5 sequence (P04968 whole entry A120R/V121L/A140R/G195C/G334V/L481P): as the sequence (P04968 whole entry A120R/V121L/A140R/G195C/G334V/L481E) above, with E481P counted along it
T3 sequence (P04968 whole entry A120R/V121L/A140R/G195C/G334V/L481T): as the sequence (P04968 whole entry A120R/V121L/A140R/G195C/G334V/L481E) above, with E481T counted along it

| SMILES | Km ([1]; read-out: Km^Thr, L481E, pMON25860, pH 7.5, L-threonine 2.5-50 mM) [mM] | Hill coefficient (n), substrate binding ([2]; L481I, pMON25861, positive cooperativity) | Km ([2]; read-out: Km^Thr, L481I, pMON25861, pH 7.5, L-threonine 2.5-50 mM) [mM] | Km ([3]; read-out: Km^Thr, L481T, pMON25866, pH 7.5, L-threonine 2.5-50 mM) [mM] | Hill coefficient (n), substrate binding ([4]; L481Q, pMON25865, positive cooperativity) | Km ([4]; read-out: Km^Thr, L481Q, pMON25865, pH 7.5, L-threonine 2.5-50 mM) [mM] | Km ([5]; read-out: Km^Thr, L481P, pMON25864, pH 7.5, L-threonine 2.5-50 mM) [mM] | IC50 [1] [µM] | IC50 [2] [µM] | IC50 [3] [µM] | IC50 [4] [µM] | IC50 [5] [µM] |
| --- | --- | --- | --- | --- | --- | --- | --- | --- | --- | --- | --- | --- |
| C[C@@H](O)[C@H](N)C(=O)O [L-threonine] | 3.9 | 1.6 | 7.6 | 3.4 | 1.6 | 8.8 | 8.8 |  |  |  |  |  |
| CC[C@H](C)[C@H](N)C(=O)O [L-isoleucine] |  |  |  |  |  |  |  | 445 | 134 | 449 | 188 | 650 |
